From patent US20060069132A1, “Azolecarboxamide herbicides” (priority 2004, published 2006)

Legend:
yellow nutsedge = test: Test C pre-/postemergence herbicide test; format: in vivo, Cyperus esculentus; conditions: for Nutsedge, Yellow plant response rating: 500 g ai/ha
Procedure, shortened: (§1)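 Visual injury scores run from 0 (no effect) to 100 (complete control), assessed relative to untreated controls 12 to 14 days after treatment in the greenhouse. Chemicals were formulated in a non-phytotoxic solvent mixture with surfactant and applied to soil after planting or to emerged plants at the 1- to 4-leaf stage.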

barnyardgrass [1] = test: Test C flooded paddy test; format: in vivo, Echinochloa crus-galli; conditions: for Plant response rating, Barnyardgrass: 500 g ai/ha, visual rating after 12 to 14 days
Procedure, shortened: (§2)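 Postemergence sprays applied to plants 2 to 18 cm tall (1- to 4-leaf stage); paddy species grown to 2-leaf stage under flooding. After 12 to 14 days in greenhouse, visual rating versus untreated controls on 0–100 scale (0 no effect, 100 complete control).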

woolly cupgrass = test: Test C pre-/postemergence herbicide test; format: in vivo, Eriochloa villosa; conditions: for Cupgrass, Woolly plant response rating: 500 g ai/ha
Procedure, shortened: as §1

barnyardgrass [2] = test: Test B flooded paddy test; format: in vivo, Echinochloa crus-galli; conditions: 1000 g ai/ha, visual rating, scale 0 to 100 (0 no effect, 100 complete control), 13 to 15 days
Procedure, shortened: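 Paddy species grown to the 2-leaf stage under flooding; blackgrass sprayed postemergence at 2–18 cm (1- to 4-leaf stage). Plants kept in a greenhouse for 13 to 15 days, then visually rated against controls on 0 (no effect) to 100 (complete control).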

rice = test: Test C flooded paddy test; format: in vivo, Oryza sativa; conditions: for Plant response rating, Rice: 500 g ai/ha, visual rating after 12 to 14 days
Procedure, shortened: as §2

giant foxtail = test: Test A pre-/postemergence herbicide test; format: in vivo, Setaria faberi
Procedure, shortened: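 Pre: seeded sandy loam, directed soil spray, compound in non-phytotoxic solvent + surfactant. Post: 1–2-leaf plants (2–10 cm), sprayed to runoff. Greenhouse ~10 d; visual injury vs untreated, 0–100 scale.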

eastern black nightshade = test: Test C pre-/postemergence herbicide test; format: in vivo, Solanum ptycanthum; conditions: for Plant response rating (0 = no effect, 100 = complete control), Nightshade: 62 g ai/ha; for Plant response rating (0 = no effect, 100 = complete control), Nightshade / Plant response rating, Nightshade: preemergence; for Plant response rating, Nightshade: 125 g ai/ha, scale 0 (no effect) to 100 (complete control), visual, 12 to 14 days
Procedure, shortened: as §1

large crabgrass = test: Test C pre-/postemergence herbicide test; format: in vivo, Digitaria sanguinalis; conditions: for Crabgrass, Large plant response rating: 500 g ai/ha
Procedure, shortened: as §1

wheat = test: Test B postemergence herbicide test; format: in vivo, Triticum aestivum; set-up: key to Wheat plant response rating: 0 = no effect, 100 = complete control; conditions: postemergence, visual rating, scale 0 (no effect) to 100 (complete control)
Procedure, shortened: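 Postemergence plants were sprayed with formulated test chemicals at 2 to 18 cm height (1- to 4-leaf stage); paddy species were grown to the 2-leaf stage. After 13 to 15 days in a greenhouse, injury was rated visually against untreated controls on a 0–100 scale (0 = no effect, 100 = complete control).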

[3] = 125 g ai/ha, scale 0 (no effect) to 100 (complete control), visual, 12 to 14 days, preemergence
[4] = 62 g ai/ha, scale 0 to 100 (0 no effect, 100 complete control)
[5] = 125 g ai/ha, scale of 0 to 100, 0 is no effect, 100 is complete control
[6] = 250 g ai/ha, scale of 0 to 100, 0 is no effect, 100 is complete control
[7] = scale 0 to 100 (0 no effect, 100 complete control)
[8] = 125 g ai/ha, scale 0 to 100 (0 no effect, 100 complete control)
[9] = Postemergence, 500 g ai/ha, 0 to 100 scale, 0 no effect, 100 complete control
[10] = Postemergence, 2000 g ai/ha, 0 to 100 scale, 0 no effect, 100 complete control
[11] = Preemergence, 500 g ai/ha, visual rating, 0 to 100 scale (0 no effect, 100 complete control)
[12] = Preemergence, 2000 g ai/ha, visual rating, 0 to 100 scale (0 no effect, 100 complete control)
[13] = Postemergence, 250 g ai/ha, scale 0 to 100, 0 no effect, 100 complete control
[14] = Preemergence, scale 0 to 100, 0 no effect, 100 complete control
[15] = postemergence, 125 g ai/ha, scale 0 to 100
[16] = postemergence, 62 g ai/ha, scale 0 to 100
[17] = 250 g ai/ha, scale 0 to 100 (0 no effect, 100 complete control), visual, 12 to 14 days, preemergence

SMILES: CC(=O)c1cccc(NC(=O)c2cc(C(C)(C)C)nn2CCF)c1 [Compound 128]
- Plant response rating, Nutsedge, Yellow (yellow nutsedge; 16 g ai/ha, scale 0 to 100, last section of Table C, preemergence): 10
- Plant response rating, Nutsedge, Yellow (yellow nutsedge; 31 g ai/ha, scale 0 to 100, last section of Table C, preemergence): 70
- Plant response rating, Nutsedge, Yellow (yellow nutsedge; [3]): 70
- Barnyardgrass plant response rating (barnyardgrass [1]; [4]): 30
- Barnyardgrass plant response rating (barnyardgrass [1]; [5]): 35
- Barnyardgrass plant response rating (barnyardgrass [1]; [6]): 60
- Plant response rating, Barnyardgrass (barnyardgrass [1]; [7]): 65
- Plant response rating (0 = no effect, 100 = complete control), Cupgrass, Woolly (woolly cupgrass; 62 g ai/ha, preemergence): 10
- Plant response rating, Cupgrass, Woolly (woolly cupgrass; [3]): 20
- Barnyardgrass plant response rating (barnyardgrass [2]): 70
- Rice plant response rating (rice; [4]): 25
- Rice plant response rating (rice; [8]): 40
- Rice plant response rating (rice; [6]): 70
- Plant response rating, Rice (rice; [7]): 70
- Foxtail, Giant plant response rating (giant foxtail; [9]): 45
- Plant response rating, Foxtail, Giant (giant foxtail; [10]): 60
- Foxtail, Giant plant response rating (giant foxtail; [11]): 15
- Foxtail, Giant plant response rating (giant foxtail; [12]): 65
- Plant response rating (0 = no effect, 100 = complete control), Nightshade (eastern black nightshade): 90
- Plant response rating, Nightshade (eastern black nightshade): 90
- Plant response rating (0 = no effect, 100 = complete control), Crabgrass, Large (large crabgrass; 62 g ai/ha, preemergence): 100
- Plant response rating, Crabgrass, Large (large crabgrass; [3]): 100
- Wheat plant response rating (wheat; 125 g ai/ha): 0
- Wheat plant response rating (wheat; 500 g ai/ha): 20

SMILES: CCNC(=O)c1cccc(NC(=O)c2cc(C(C)(C)C)nn2CC)n1 [Compound 144]
- Plant response rating (0 = no effect, 100 = complete control), Nutsedge, Yellow (yellow nutsedge; 62 g ai/ha, preemergence): 0
- Plant response rating, Nutsedge, Yellow (yellow nutsedge; [3]): 0
- Nutsedge, Yellow plant response rating (yellow nutsedge; Postemergence, scale 0 to 100): 0
- Plant response rating, Nutsedge, Yellow (yellow nutsedge; [13]): 0
- Nutsedge, Yellow plant response rating (yellow nutsedge; [14]): 40
- Plant response rating, Nutsedge, Yellow (yellow nutsedge; [15]): 0
- Plant response rating, Nutsedge, Yellow (yellow nutsedge; [16]): 0
- Barnyardgrass plant response rating (barnyardgrass [1]; [4]): 20
- Barnyardgrass plant response rating (barnyardgrass [1]; [5]): 20
- Barnyardgrass plant response rating (barnyardgrass [1]; [6]): 50
- Plant response rating, Barnyardgrass (barnyardgrass [1]; [7]): 60
- Plant response rating (0 = no effect, 100 = complete control), Cupgrass, Woolly (woolly cupgrass; 62 g ai/ha, preemergence): 0
- Plant response rating, Cupgrass, Woolly (woolly cupgrass; [3]): 5
- Plant response rating, Cupgrass, Woolly (woolly cupgrass; [17]): 5
- Cupgrass, Woolly plant response rating (woolly cupgrass; Postemergence, scale 0 to 100): 50
- Plant response rating, Cupgrass, Woolly (woolly cupgrass; [13]): 50
- Cupgrass, Woolly plant response rating (woolly cupgrass; [14]): 70
- Plant response rating, Cupgrass, Woolly (woolly cupgrass; [15]): 30
- Plant response rating, Cupgrass, Woolly (woolly cupgrass; [16]): 0
- Barnyardgrass plant response rating (barnyardgrass [2]): 80
- Rice plant response rating (rice; [4]): 0
- Rice plant response rating (rice; [8]): 20
- Rice plant response rating (rice; [6]): 30
- Plant response rating, Rice (rice; [7]): 30
- Foxtail, Giant plant response rating (giant foxtail; [9]): 80
- Plant response rating, Foxtail, Giant (giant foxtail; [10]): 100
- Foxtail, Giant plant response rating (giant foxtail; [11]): 90
- Foxtail, Giant plant response rating (giant foxtail; [12]): 100
- Plant response rating (0 = no effect, 100 = complete control), Nightshade (eastern black nightshade): 90
- Plant response rating, Nightshade (eastern black nightshade): 100
- Nightshade plant response rating (eastern black nightshade; Preemergence, 500 g ai/ha, scale 0 to 100, 0 no effect, 100 complete control): 100
- Plant response rating (0 = no effect, 100 = complete control), Crabgrass, Large (large crabgrass; 62 g ai/ha, preemergence): 50
- Plant response rating, Crabgrass, Large (large crabgrass; [3]): 70
- Plant response rating, Crabgrass, Large (large crabgrass; [17]): 85
- Crabgrass, Large plant response rating (large crabgrass; Postemergence, scale 0 to 100): 100
- Plant response rating, Crabgrass, Large (large crabgrass; [13]): 100
- Crabgrass, Large plant response rating (large crabgrass; [14]): 100
- Plant response rating, Crabgrass, Large (large crabgrass; [15]): 10
- Plant response rating, Crabgrass, Large (large crabgrass; [16]): 0
- Wheat plant response rating (wheat; 500 g ai/ha): 30
